This is an account of results in US6444681B1, “Methods and compositions for treating Raynaud's Phenomenon and scleroderma” (The Ohio State University Research Foundation, priority 2000, dated 2002).

Each structure is given as a SMILES string. Where two headings read alike, the source gives them in different places. Bounds are passed on as bounds.

The target of test [1] is Mouse Tail Artery. The test can be described thus: Antagonism of UK 14,304-induced vasoconstriction in isolated pressurised distal mouse tail artery. It counts as cell-based. The source says:
Male mice (C57BL6) were euthanized by CO2 asphyxiation. Proximal and/or distal segments of tail artery were then rapidly removed and placed in cold Krebs-Ringer bicarbonate solution (in mM): 118.3 NaCl, 4.7 KCl, 1.2 MgSO4, 1.2 KH2PO4, 2.5 CaCl2, 25.0 NaHCO3, 11. glucose (control solution). The small arteries were cannulated at both ends with glass micropipettes, secured using 12-0 nylon monofilament suture and placed in a microvascuiar chamber (Living Systems, Burlington, Vt.). The arteries were maintained at a constant transmural pressure of 60 mmHg in the absence of flow. The chamber was superfused with control solution and maintained at 37° C., pH 7.4, and gassed with 16% O2-5% CO2-balance N2. The chamber was placed on the stage of an inverted microscope (X20, Nikon TMS-F, Japan) connected to a video camera (Panasonic, CCTV camera, Japan). The vessel image was projected onto a video monitor and the internal diameter continuously determined by a video dimension analyzer (Living Systems Instrumentation, Burlington Vt.) and monitored using a BIOPAC (Santa Barbara, Calif.) data acquisition system (Gateway Dimensions Pentium Computer).
Small arteries were allowed to equilibrate for 30-40 min at a transmural pressure (PTM) of 60 mmHg before addition of α1 and α2-AR agonists and antagonists. Concentration-effect curves to the selective α1-AR agonist, phenylephrine, or the selective α2-AR agonist, UK 14,304 (brimonidine, 5-bromo-N-(4,5-dihydro-1H-imidazol-2-yl)-6-quinoxalinamine) were generated by increasing the concentration of the agonists in half-log increments, once the constriction to the previous concentration had stabilized. Following completion of the concentration-effect curve, the influence of the agonists was terminated by repeatedly exchanging the buffer solution and allowing the artery to return to its stable baseline level.
To evaluate the effect of selective α2-AR antagonists on vasoconstriction, concentration-effect curves to UK 14,304 were determined under control conditions and in the presence of the selective α2A-AR antagonist, BRL 44408 (100 and 1000 nM), the selective α2B-AR antagonist ARC 0239 (50 nM) or the selective α2C-AR antagonist MK 912 (0.3 nM) (Table 1). When these receptor antagonists were used, the preparations were incubated for 30 min with the drugs prior to, and also during, exposure of the arteries to the agonists. When analyzing the influence of cold on α-AR responsiveness, the temperature of the superfusate was decreased to 28° C. for 30 min prior to commencing a concentration effect curve to the constrictor agonists. This provides sufficient time for the effect of cold on adrenergic reactivity to stabilize.
Vasomotor responses were expressed as a percentage change in internal diameter (ID) prior to administrating the agent. Because of the phasic behavior of the vasomotion in distal. tail arteries, the signal was electronically averaged (BIOPAC software, smoothing factor of 2000) in order to obtain diameter measurements. Functional data is expressed as means±SEM for n number of experiments, where n equals the number of animals from which blood vessels were studied. Antagonist dissociation constants (KD) were determined either from Arunlakshana and Schild plots or according to the formula: KD=[Ant]/(CR-1), where [Ant] is the concentration of antagonist, and CR the ratio of agonist-concentrations producing equal responses in the presence and absence of the antagonist. […] Statistical evaluation of the data was performed by Student's t-test for either paired or unpaired observations. When more than two means were compared, analysis of variance was used. If a significant F value was found, Scheffe's test for multiple comparisons was employed to identify differences among groups. Values were considered to be statistically different when P was less than 0.05.

Test [2] addresses T1, α-2B (Homo sapiens, UniProt P18089).
T1 sequence (P18089 1-450): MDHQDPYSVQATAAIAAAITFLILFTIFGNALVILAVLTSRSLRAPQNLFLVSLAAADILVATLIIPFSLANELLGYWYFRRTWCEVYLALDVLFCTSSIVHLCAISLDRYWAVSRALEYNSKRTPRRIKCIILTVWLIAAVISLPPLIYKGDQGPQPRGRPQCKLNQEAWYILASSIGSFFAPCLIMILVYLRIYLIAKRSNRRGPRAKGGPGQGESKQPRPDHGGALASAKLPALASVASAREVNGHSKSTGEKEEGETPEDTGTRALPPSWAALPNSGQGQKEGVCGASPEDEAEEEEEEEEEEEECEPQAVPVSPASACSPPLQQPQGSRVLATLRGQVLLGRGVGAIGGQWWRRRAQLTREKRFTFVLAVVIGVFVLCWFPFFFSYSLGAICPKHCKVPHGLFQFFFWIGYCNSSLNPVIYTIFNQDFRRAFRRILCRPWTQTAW
As to conditions: cited from earlier work.

As to `CN1CCC2(CCN3CCc4c(oc5ccccc45)C3C2)N(C)C1=O` (stereo not drawn) [MK 912], the “−log KD” value in test [1] (28° C. (cold), n=4) is listed as 10.9±0.17. For the same compound, the Kd (in general, the free concentration of one partner at which half of the binding sites on the other are occupied at equilibrium, for simple one-to-one binding) in test [1] (28° C. (cold), n=4, read-out: KD) is 0.014 nM; in test [1] (28° C. (cold), versus UK 14,304, distal tail artery, read-out: KD Mouse Tail Artery 28° C.), greater than 0.014 nM; in test [1] (37° C. (warm), versus UK 14,304, distal tail artery, read-out: KD Mouse Tail Artery 37° C.), greater than 0.3 nM; in test [2], 0.33 nM. In test [1] (28° C. versus 37° C., UK 14,304), the “effect on cold-induced amplification of the α2-AR response” value is recorded as “selectively abolished”. Besides, in test [1] (based on the Table 1 KD, antagonist at 0.3 nM), the “expected shift in concentration-effect curves generated by α2C-AR stimulation” value is listed as roughly 6 fold. Moreover, in test [1] (cold (28° C.), BRL 44408 100 and 1000 nM, ARC 0239 50 nM, MK912 3×10^−10M), the “effect on vasoconstrictor response to UK 14,304” value is recorded as “dramatically inhibited”. Further, in test [1] (warm temperatures (37° C.), BRL 44408 100 and 1000 nM, ARC 239 50 nM, MK 912 0.3 nM), the “effect on vasoconstriction to the α2-AR agonist UK 14,304” value is “not inhibited”.
